“Also recorded” adds a separate entry of the source.
Legend:
Assay type in all cases: in vitro ADME
human OAT3 = molecular target: T1, human OAT3 (Homo sapiens, UniProt Q8TCC7); assay: Uptake transporter substrate assay; details: OAT3 UPT; for Maximum fold accumulation over control: maximum seen at 5 µM and 20 min, n = 3
T1 sequence (Q8TCC7 1-542): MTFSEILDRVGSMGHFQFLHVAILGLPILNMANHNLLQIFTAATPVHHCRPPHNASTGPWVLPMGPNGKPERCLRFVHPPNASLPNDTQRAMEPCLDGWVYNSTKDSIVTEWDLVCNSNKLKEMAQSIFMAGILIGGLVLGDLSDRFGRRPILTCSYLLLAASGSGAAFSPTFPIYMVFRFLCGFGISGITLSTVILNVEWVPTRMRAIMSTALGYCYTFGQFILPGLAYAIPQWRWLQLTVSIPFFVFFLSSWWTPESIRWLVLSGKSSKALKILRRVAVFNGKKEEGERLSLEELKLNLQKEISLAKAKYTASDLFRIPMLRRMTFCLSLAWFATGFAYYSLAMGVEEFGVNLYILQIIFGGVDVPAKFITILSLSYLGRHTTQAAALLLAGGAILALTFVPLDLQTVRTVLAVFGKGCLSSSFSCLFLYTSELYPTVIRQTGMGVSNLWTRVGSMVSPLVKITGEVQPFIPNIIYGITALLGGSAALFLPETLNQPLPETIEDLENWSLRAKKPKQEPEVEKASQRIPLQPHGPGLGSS

human OCT2 = molecular target: T2, human OCT2 (Homo sapiens, UniProt O15244); assay: Uptake transporter substrate assay; details: OCT2 UPT; for Maximum fold accumulation over control: maximum seen at 1 µM and 20 min, n = 3
T2 sequence (O15244 1-555): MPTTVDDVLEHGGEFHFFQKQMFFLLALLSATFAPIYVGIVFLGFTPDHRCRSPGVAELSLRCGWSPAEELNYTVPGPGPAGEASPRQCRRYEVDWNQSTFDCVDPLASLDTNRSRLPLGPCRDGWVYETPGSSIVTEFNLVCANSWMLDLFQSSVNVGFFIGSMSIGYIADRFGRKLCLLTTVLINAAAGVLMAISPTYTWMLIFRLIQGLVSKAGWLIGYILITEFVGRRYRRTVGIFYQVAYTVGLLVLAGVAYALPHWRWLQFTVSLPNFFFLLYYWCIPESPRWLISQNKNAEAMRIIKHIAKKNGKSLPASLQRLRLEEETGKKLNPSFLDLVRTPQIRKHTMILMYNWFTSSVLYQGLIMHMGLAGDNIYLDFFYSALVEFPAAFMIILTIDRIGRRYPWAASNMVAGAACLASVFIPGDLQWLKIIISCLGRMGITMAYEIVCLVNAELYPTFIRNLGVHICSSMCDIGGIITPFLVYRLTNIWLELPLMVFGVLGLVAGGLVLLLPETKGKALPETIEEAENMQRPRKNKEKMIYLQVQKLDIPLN

human OATP1B1 = molecular target: T3, human OATP1B1 (Homo sapiens, UniProt Q9Y6L6); assay: Uptake transporter substrate assay; details: OATP1B1 UPT; for Maximum fold accumulation over control: maximum seen at 2.5 µM and 20 min, n = 3
T3 sequence (Q9Y6L6 1-691): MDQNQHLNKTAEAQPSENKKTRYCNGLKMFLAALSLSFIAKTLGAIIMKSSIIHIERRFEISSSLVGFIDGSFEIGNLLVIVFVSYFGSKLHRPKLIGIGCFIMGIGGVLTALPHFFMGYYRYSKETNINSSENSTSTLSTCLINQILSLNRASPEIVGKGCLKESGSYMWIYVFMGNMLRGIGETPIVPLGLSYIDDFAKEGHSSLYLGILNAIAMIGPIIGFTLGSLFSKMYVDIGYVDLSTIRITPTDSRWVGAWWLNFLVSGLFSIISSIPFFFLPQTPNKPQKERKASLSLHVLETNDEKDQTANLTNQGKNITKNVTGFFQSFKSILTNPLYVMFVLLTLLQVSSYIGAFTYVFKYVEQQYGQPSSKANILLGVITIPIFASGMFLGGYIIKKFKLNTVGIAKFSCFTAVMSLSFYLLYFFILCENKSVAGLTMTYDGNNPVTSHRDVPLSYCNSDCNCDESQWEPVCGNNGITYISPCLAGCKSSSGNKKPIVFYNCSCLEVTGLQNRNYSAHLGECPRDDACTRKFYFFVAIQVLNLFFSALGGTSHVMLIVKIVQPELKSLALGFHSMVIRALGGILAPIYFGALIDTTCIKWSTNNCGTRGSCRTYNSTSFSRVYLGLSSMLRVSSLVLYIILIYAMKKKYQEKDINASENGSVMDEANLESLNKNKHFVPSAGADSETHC

human MATE2‐K = human MATE2‐K (Homo sapiens, UniProt Q86VL8); assay: Uptake transporter substrate assay; details: MATE2‐K UPT; for Maximum fold accumulation over control: maximum seen at 2.5 µM and 20 min, n = 3
human OATP1B3 = molecular target: T4, human OATP1B3 (Homo sapiens, UniProt Q9NPD5); assay: Uptake transporter substrate assay; details: OATP1B3 UPT; for Maximum fold accumulation over control: maximum seen at 1 µM and 20 min, n = 3
T4 sequence (Q9NPD5 1-702): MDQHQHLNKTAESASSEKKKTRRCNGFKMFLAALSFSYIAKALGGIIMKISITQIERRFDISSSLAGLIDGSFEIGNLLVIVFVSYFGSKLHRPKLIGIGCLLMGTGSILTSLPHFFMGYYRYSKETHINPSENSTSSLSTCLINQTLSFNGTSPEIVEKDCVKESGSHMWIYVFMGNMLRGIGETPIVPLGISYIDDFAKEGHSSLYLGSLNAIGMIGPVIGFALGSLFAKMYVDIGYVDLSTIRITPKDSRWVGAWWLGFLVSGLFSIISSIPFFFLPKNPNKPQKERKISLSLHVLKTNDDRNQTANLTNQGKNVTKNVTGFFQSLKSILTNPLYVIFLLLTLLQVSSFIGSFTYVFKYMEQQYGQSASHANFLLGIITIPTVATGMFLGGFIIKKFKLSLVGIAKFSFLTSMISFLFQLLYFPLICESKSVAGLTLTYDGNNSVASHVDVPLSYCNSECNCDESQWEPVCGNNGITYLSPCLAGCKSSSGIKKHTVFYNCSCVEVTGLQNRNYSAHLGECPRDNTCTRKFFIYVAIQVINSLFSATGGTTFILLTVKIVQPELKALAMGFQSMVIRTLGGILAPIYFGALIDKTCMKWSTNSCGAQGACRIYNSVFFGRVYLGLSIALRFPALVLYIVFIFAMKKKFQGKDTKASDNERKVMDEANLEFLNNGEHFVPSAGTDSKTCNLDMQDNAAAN

human MDR1 = human MDR1 (Homo sapiens, UniProt P08183); assay: Transporter substrate assay, MDCKII‐MDR1 monolayer bidirectional transport; details: MDR1 ML; for Maximum net ER: maximum seen at 1 and 5 µM, n = 3
[1] = listed as 6β‐hydroxy‐21‐desacetyl deflazacort

Sequence of human MATE2‐K (Q86VL8 1-566 isoform Q86VL8-3): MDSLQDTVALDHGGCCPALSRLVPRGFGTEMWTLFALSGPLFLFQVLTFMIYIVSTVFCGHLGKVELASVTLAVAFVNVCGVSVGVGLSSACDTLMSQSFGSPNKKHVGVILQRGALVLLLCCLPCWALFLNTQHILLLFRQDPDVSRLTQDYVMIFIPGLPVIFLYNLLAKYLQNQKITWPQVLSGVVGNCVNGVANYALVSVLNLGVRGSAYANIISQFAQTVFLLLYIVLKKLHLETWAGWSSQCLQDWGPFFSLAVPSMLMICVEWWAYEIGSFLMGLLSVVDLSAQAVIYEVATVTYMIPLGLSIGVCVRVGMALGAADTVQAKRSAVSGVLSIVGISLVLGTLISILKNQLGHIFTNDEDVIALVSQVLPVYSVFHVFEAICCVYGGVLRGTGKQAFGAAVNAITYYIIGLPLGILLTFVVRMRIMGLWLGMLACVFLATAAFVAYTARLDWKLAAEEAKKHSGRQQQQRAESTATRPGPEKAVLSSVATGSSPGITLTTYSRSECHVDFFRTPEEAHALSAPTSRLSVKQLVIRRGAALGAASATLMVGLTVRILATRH
Sequence of human MDR1 (P08183 whole entry): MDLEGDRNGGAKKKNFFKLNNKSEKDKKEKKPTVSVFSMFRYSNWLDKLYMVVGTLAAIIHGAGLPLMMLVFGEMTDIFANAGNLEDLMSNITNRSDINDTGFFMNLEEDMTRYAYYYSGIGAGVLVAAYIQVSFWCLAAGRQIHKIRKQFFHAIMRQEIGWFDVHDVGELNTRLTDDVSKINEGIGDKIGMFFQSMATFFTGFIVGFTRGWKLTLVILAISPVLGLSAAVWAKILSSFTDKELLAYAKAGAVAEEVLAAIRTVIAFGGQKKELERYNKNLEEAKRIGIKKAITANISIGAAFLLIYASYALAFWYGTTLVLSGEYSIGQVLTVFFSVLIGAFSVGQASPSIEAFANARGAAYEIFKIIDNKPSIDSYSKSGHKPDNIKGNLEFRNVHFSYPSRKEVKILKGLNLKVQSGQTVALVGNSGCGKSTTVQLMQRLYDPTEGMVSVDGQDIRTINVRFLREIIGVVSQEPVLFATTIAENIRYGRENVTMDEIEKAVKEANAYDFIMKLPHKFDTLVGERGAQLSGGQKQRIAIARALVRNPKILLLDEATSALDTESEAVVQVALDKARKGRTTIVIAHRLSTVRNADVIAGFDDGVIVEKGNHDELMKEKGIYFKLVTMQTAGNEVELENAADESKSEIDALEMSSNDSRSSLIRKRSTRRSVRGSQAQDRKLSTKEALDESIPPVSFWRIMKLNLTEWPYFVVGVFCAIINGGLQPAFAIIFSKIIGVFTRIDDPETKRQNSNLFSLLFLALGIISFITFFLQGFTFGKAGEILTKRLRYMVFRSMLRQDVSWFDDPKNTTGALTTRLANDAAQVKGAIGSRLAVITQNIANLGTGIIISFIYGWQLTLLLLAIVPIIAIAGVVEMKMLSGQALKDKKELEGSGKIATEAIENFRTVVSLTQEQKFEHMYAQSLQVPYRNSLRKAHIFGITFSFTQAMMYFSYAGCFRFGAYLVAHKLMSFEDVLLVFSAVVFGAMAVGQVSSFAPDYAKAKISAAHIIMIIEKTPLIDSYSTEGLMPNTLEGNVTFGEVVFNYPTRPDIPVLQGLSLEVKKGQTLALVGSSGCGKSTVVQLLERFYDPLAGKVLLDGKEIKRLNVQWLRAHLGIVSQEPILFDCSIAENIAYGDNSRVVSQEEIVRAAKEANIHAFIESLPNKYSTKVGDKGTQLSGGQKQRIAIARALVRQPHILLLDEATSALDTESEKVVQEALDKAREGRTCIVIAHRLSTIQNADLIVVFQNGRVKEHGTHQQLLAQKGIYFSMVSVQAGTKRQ

Compound | Substrate potential (human OAT3) | Fold accumulation over control, without inhibitor (inhibitor experiment) (human OAT3; before inhibitor‐reduced accumulation) | Substrate potential (human OAT3; [1]) | Maximum fold accumulation over control (human OAT3) | Substrate potential (human OCT2) | Substrate potential (human OCT2; [1]) | Maximum fold accumulation over control (human OCT2) | Substrate potential (human OATP1B1) | Substrate potential (human OATP1B1; [1]) | Maximum fold accumulation over control (human OATP1B1) | Substrate potential (human MATE2‐K) | Substrate potential (human MATE2‐K; [1]) | Maximum fold accumulation over control (human MATE2‐K) | Substrate potential (human OATP1B3) | Substrate potential (human OATP1B3; [1]) | Maximum fold accumulation over control (human OATP1B3) | Substrate potential (human MDR1) | Substrate potential (human MDR1; [1]) | Maximum net ER (human MDR1) | Fold accumulation over control, in the presence of OAT3 inhibitor (human OAT3; with inhibitor probenecid)
CC1=N[C@]2(C(=O)CO)[C@@H](C[C@H]3[C@@H]4C[C@@H](O)C5=CC(=O)C=C[C@]5(C)[C@H]4[C@@H](O)C[C@@]32C)O1 [6β‐OH‐21‐desDFZ, 6β‐Hydroxy‐21‐desacetyl deflazacort] | appeared to be an in vitro substrate; also recorded: in vitro substrate for human OAT3 | 1.75 fold | Yes | 2.71 fold | not a substrate | No | 1.32 at 1 µM and 20 min fold | not a substrate | No | 1.02 at 2.5 µM and 20 min fold | not a substrate | No | 1.08 at 2.5 µM and 20 min fold | not a substrate | No | 1.47 at 1 µM and 20 min fold | not a substrate | No | 0.59 at 1 and 5 µM | 
[2’-^14C]-6β-hydroxy-21-desacetyl-deflazacort [^14C‐6β‐OH‐21‐desDFZ] | is an OAT3 substrate in vitro |  |  | 2.71 fold |  |  | < 2 fold |  |  | < 2 fold |  |  | < 2 fold |  |  | < 2 fold |  |  | 0.59 | 1.08 fold

Reference: article PMC7982320 (Pharmacology Research & Perspectives, 2021)
